Here are results for three molecules from patent publication US20220111028A1, “Combination Of A STING Agonist And A Complex Comprising A Cell Penetrating Peptide, A Cargo And A TLR Peptide Agonist” (priority 2020, published 2022).

The test system of experiment [1] is TC-1 tumor. Nature of the experiment: TC-1 tumor model: tumor growth, survival and circulating CD8 T cells (STINGa 2). It counts as in vivo, C57BL/6 mice. The following applies: TC-1 model, complex day 6 and 13, STINGa 2 s.c. days 6, 10, 13 and 17. On the procedure:
(§1) C57BL/6 mice were implanted s.c. with 1×10^5 TC-1 tumor cells in the back and mice were stratified according to tumor size on day 6 tumor implantation. Alternatively, C57BL/6J mice were injected i.v. with 1×10^5 B16-OVA cells. Mice were vaccinated two times (at day 6 and 13 post tumor implantation) by s.c. injection of 10 nmoles of vaccine at the tail base. At the same time of vaccination, mice received 25 μg of STING agonist administered via 2×50 μl s.c. injections in each side of the low back. Alternatively, at the same time of vaccination, mice received 10 μg of STING agonist 2 administered via 2×100 μl s.c. injections in each side of the low back.
(§2) Tumor size was measured with a caliper and mice were euthanized when tumor reached a volume of 1000 mm^3. Tumor volume was calculated with the following formula:
(§3) V=length×length×width×Pi/6
Similarly as described above, 10^5 TC-1 cells were implanted on the back of C57BL/6 mice and assigned to distinct groups (control (no treatment); complex comprising a cell penetrating peptide, at least one antigen or antigenic epitope, and a TLR peptide agonist (Z13Mad25Anaxa); STING agonist STINGa 2; and a combination thereof). […]

Experiment [2] has as its system IFN-α. Nature of the experiment: Quantification of serum interferon-α (ELISA) in tumor-free mice. To be noted: 4 and 24 hours post first vaccination, s.c. In kind it is in vivo, C57BL/6 mice. As for the experimental part:
Blood was collected from mouse tail vein and serum was isolated by centrifugation using Starstedt tubes. The concentration of IFN-α cytokine was measured using commercial ELISA kits according to the manufacturer's recommendations (PBL Assay Science).
In order to evaluate the immunogenicity of the combination, tumor-free C57BL/6 mice were vaccinated twice at 2 weeks interval (at day 0 and 14) by s.c. injection of 10 nmoles of Z13Mad25Anaxa (an exemplified a complex comprising a cell penetrating peptide, at least one antigen or antigenic epitope, and a TLR peptide agonist, which contains human papilloma virus (HPV)-derived CD4 and CD8 epitopes. At about the same time of vaccination, mice received 25 μg of STING agonist ADU-S100 administered via 2×50 μl s.c. injections in each side of the low back. Serum was collected 4 and 24 hours after the first vaccination and IFN-α concentration was measured by ELISA. Whole blood was collected at day 21 and used for antigen-specific CD8 T cells measurement by multimer flow cytometry staining. At the same time, spleens were harvested and splenocytes used for ex vivo stimulation and intracellular cytokine production was analyzed by flow cytometry. Alternatively, splenocytes were used for TCR avidity assay.

Experiment [3] relates to HPV-E7-specific CD8 T cells, splenic CD8 and CD4 T cells. Nature of the experiment: Immunogenicity in tumor-free mice: multimer staining and flow cytometry of blood and splenocytes. It counts as in vivo, C57BL/6 mice. As for the experimental part:
(§4) Peripheral blood and spleen mononuclear cell suspensions from mice were isolated using Ficoll-Paque gradient (GE Healthcare) before flow cytometry analysis, ex vivo stimulation or TCR avidity assay.
TILs, LILs or splenocytes were numerated and 1×10^5 or 2×10^6 cells were plated per condition, respectively. Cells were incubated with HPV-CD4, HPV-CD8, OVA-CD8 or OVA-CD4 epitope peptide, with PMA/ionomycin as a positive control or without any stimulant as a negative control, in presence of Golgi stop (BD biosciences) and anti-CD107a for 6 hours. […]
The following antibodies were used: CD45 (30-F11), CD11b (M1/70), KLRG1 (2F1), CD103 (M290), NKg2a (20d5), Ly6C (AL-21), Ly6G (1A8), PD-L1 (MIH5), I-A/I-E (M5/114), CD11c (HL3), PDCA1 (927), CD64 (X54-5/7.1), B220 (RA3-6B2), CD24 (M1/69), CD4 (GK1.5), CD25 (3C7), CD3 (500A2), NKp46 (29A1.4), TNF-α (MP6-XT22), IFN-γ (XMG1.2), H2-Kb (AF6-88.5) and H2-db (28-14-8) were from BD Biosciences; Tim3 (RMT3-23), PD-1 (29F.1A12), CD38 (90), Gr-1 (RB6-8C5), CD206 (C068C2), CD68 (FA-11) were from BioLegend; Ki67 (solA15), FoxP3 (FJK-16s), T-bet (4B10), GATA-3 (TWAJ) and RORγt (AFKJS-9) were from ThermoFisher Scientific; Granzyme B (REA226) was from Miltenyi; CD8 (KT15) was from MBL. […] Cells were analyzed using an Attune NxT flow cytometer (ThermoFisher Scientific) Kaluza (Beckman Coulter) software. […]

Experiment [4] relates to TC-1 tumor. Put plainly: TC-1 tumor model: antigen-specific CD8 T cell responses. It counts as in vivo, C57BL/6 mice. As for the experimental part:
as §1
(§5) TC-1 tumors were harvested at day 20 post implantation and tumor-infiltrating leucocytes (TIL) were purified using Miltenyi tumor dissociation kit following manufacturer instruction. Briefly, tumor tissues were cut into small pieces, and resuspended in DMEM medium containing tumor dissociating enzymes (Miltenyi). Tumors were digested on a Gentle MACS with heating system (Miltenyi) using solid tumor program. Enzymatic digestion was stopped by adding cold PBS 0.5% BSA solution and keeping cells on ice. Digested tumors were passed through a 70 μm to eliminate remaining undigested tissue. CD45+ cells were purified using CD45 TIL microbeads (Miltenyi) following manufacturer protocol. Purified CD45+ cells were used for flow cytometry staining or ex vivo T cells stimulation.
as §4
TILs, LILs or splenocytes were numerated and 1×10^5 or 2×10^6 cells were plated per condition, respectively. […]
The following antibodies were used: CD45 (30-F11), CD11b (M1/70), KLRG1 (2F1), CD103 (M290), NKg2a (20d5), Ly6C (AL-21), Ly6G (1A8), PD-L1 (MIH5), I-A/I-E (M5/114), CD11c (HL3), PDCA1 (927), CD64 (X54-5/7.1), B220 (RA3-6B2), CD24 (M1/69), CD4 (GK1.5), CD25 (3C7), CD3 (500A2), NKp46 (29A1.4), TNF-α (MP6-XT22), IFN-γ (XMG1.2), H2-Kb (AF6-88.5) and H2-db (28-14-8) were from BD Biosciences; Tim3 (RMT3-23), PD-1 (29F.1A12), CD38 (90), Gr-1 (RB6-8C5), CD206 (C068C2), CD68 (FA-11) were from BioLegend; Ki67 (solA15), FoxP3 (FJK-16s), T-bet (4B10), GATA-3 (TWAJ) and RORγt (AFKJS-9) were from ThermoFisher Scientific; Granzyme B (REA226) was from Miltenyi; CD8 (KT15) was from MBL. […] Cells were analyzed using an Attune NxT flow cytometer (ThermoFisher Scientific) Kaluza (Beckman Coulter) software.
To this end, 10^5 TC-1 tumor cells were implanted on the back of C57BL/6 mice. […] One week after the last treatment, mice were sacrificed, tumor harvested, and CD8 T cells presence and phenotype was analyzed by FACS staining.

Experiment [5] has as its system TC-1 tumor. Put plainly: TC-1 tumor model: intra-tumoral CD4 T cell responses. It counts as in vivo, C57BL/6 mice. On the procedure:
as §1
as §5, with “Purified CD45+ cells were used for flow cytometry staining or ex vivo T cells stimulation.” left out
In view thereof, intra-tumoral CD4 T cells were monitored next. […]

Experiment [6] has as its system TC-1 tumor. Nature of the experiment: TC-1 tumor model: tumor microenvironment composition by FACS. In kind it is in vivo, C57BL/6 mice. The following applies: systemic administration. On the procedure:
as §1
as §5, with “Purified CD45+ cells were used for flow cytometry staining or ex vivo T cells stimulation.” left out
For orientation: Flow cytometry measures light scatter and fluorescence of single cells or particles in a stream.

For experiment [7], the system named is TC-1 tumor. Put plainly: TC-1 tumor model: intra-tumoral expression of PD-L1, MHC-I and MHC-II. It counts as in vivo, C57BL/6 mice. On the procedure: as §1
TC-1 tumors were harvested at day 20 post implantation and tumor-infiltrating leucocytes (TIL) were purified using Miltenyi tumor dissociation kit following manufacturer instruction. Briefly, tumor tissues were cut into small pieces, and resuspended in DMEM medium containing tumor dissociating enzymes (Miltenyi). Tumors were digested on a Gentle MACS with heating system (Miltenyi) using solid tumor program. […]
Furthermore, down-regulation of MHC-I expression on tumor cells is one of the main mechanism of immune evasion. Therefore, the intra-tumoral expression of PD-L1 and MHC-I as well as MHC-II was also monitored in the TC-1 tumor model as described above.

The test system of experiment [8] is TC-1 tumor. Put plainly: TC-1 tumor model: tumor growth and survival (STINGa). It counts as in vivo, C57BL/6 mice. The following applies: TC-1 model, treated twice at one-week interval. As for the experimental part: as §1, §2, §3
10^5 TC-1 cells were implanted on the back of C57BL/6 mice. When tumors were visible, mice were treated twice at one-week interval as described above in therapeutic settings of the TC-1 tumor model with (i) the complex comprising a cell penetrating peptide, at least one antigen or antigenic epitope, and a TLR peptide agonist (Z13Mad25Anaxa); (ii) the STING agonist; or (iii) a combination of both.

Experiment [9] has as its system B16-OVA tumor. Put plainly: B16-OVA pulmonary metastases tumor model. It counts as in vivo, C57BL/6 mice. To be noted: B16-OVA i.v., day 20. On the procedure:
as §1
B16-OVA tumor bearing mice were sacrificed at day 20, lungs were perfused with a saline solution and the number of lung metastasis was counted.
B16-OVA tumor bearing mice were perfused with a saline solution to eliminate blood from the lungs before their collection. Lung-infiltrating leucocytes (LILs) were purified using mouse tumor dissociation kit from Miltenyi, following manufacturer instruction. […]
Briefly, 10^5 B16-OVA cells were injected intravenously into C57BL/6 mice. […] At day 20 (10 days after the last vaccination), lungs were perfused to eliminate blood, the number of pulmonary metastasis was counted, and lung infiltrating lymphocytes (LILs) were analyzed.

For experiment [10], the system named is MC38-CEA tumor. Nature of the experiment: MC38-CEA tumor model: CEA-specific CD8 T cells by multimer staining. In kind it is in vivo, C57BL/6J mice. To be noted: multimer staining one week after second vaccination, MC38-CEA tumor-bearing mice. On the procedure: Alternatively, female C57BL/6J mice were implanted with 5×10^5 MC38-CEA tumor cells subcutaneously on the back of the mouse and vaccinated twice at the base of the tail (at day 6 and 13 post tumor implantation) by s.c. injection of 10 nmoles of vaccine, 25 μg of STINGa (ADU-S100) or a combination of the two.
Female C57BL/6J mice were implanted with 5*10^5 MC38-CEA tumor cells subcutaneously on the back of the mouse. At day 6 and day 13 post tumor implantation, mice were vaccinated with 10 nmol of ATP128, 25 μg of a STING agonist (ADU-S100) or a combination of the two. Both the ATP128 vaccine and the STING agonist were injected subcutaneously at the base of the tail. One week after the second vaccination, mouse blood was collected from the tail vein and the frequency and the total number of CEA-specific CD8 T cells was analyzed by flow cytometry using a custom designed multimer.

Turning to `Nc1ncnc2c1ncn2[C@@H]1O[C@@H]2COP(=O)(S)O[C@@H]3[C@H](O)[C@@H](COP(=O)(S)O[C@H]2[C@H]1F)O[C@H]3n1cnc2c(=O)[nH]ncc21` (stereo partly drawn) [STINGa 2], in [1], the Survival result was “only provided a slight improvement” and the Tumor growth result is listed as “only provided a slight improvement”.

For `Nc1ncnc2c1ncn2[C@@H]1O[C@@H]2CO[P@@](=O)([S][Na])O[C@@H]3[C@H](O)[C@@H](CO[P@@](=O)([S][Na])O[C@H]2[C@H]1O)O[C@H]3n1cnc2c(N)ncnc21` [STINGa, reference compound], the “Serum IFN-α level (systemic type I interferon response)” value in experiment [2] is “high IFN-α serum levels peaking 4 hours post injection and decreasing already 24 hours later”. Further, the “Proportion of splenic CD8 T cells” value in [3] is on record as “higher proportion of splenic CD8 T cells”. In addition, the “Cytokine secretion by CD8 T cells after ex vivo PMA/Ionomycin restimulation” value in experiment [3] (splenocytes) is on record as “increased cytokine secretion”. Further, in experiment [4] (TC-1 tumor), the “HPV-specific proportion of tumor-infiltrating CD8 T cells (in words)” value is recorded as “did not modulate”. Besides, in experiment [4] (TC-1 tumor, flow cytometry), the “Expression of exhaustion markers PD-1 and Tim-3 by tumor-infiltrating CD8 T cells” value is listed as “expressed only PD-1 or no exhaustion marker at all”. In addition, in experiment [4] (TC-1 tumor, one week after last treatment), the “CD8 T cells tumor infiltration” value was “did not modulate”. Moreover, in experiment [4] (blood, one week after last treatment, TC-1 tumor-bearing mice), the “Circulating HPV-specific CD8 T cells (frequency and number)” value is “no effect”. For the same molecule, in experiment [5], the “Tumor infiltration by CD4 T cells” value is “no effect on intra-tumoral CD4 T cells recruitment”. In addition, the “Composition of TME” value in experiment [6] is reported as “does not affect the composition of TME”. Moreover, the “Intra-tumoral immunogenicity (modulation of TME)” value in experiment [7] is recorded as “no effect was observed”. The “Tumor development / tumor growth” value in [8] is recorded as “only a small effect on tumor growth”. Moreover, in experiment [9], the “Number of metastatic nodules per lung” value was “no effect”.

As to “ATP128: Vaccine construct (SEQ ID NO: 54) containing CEA, survivin and ASCL2 epitopes, cell penetrating peptide and TLR peptide agonist”, the “CEA-specific CD8 T cell response” value in [10] is “elicits CEA-specific CD8 T cells”.
